Columns and labels:
Format in all cases: cell-based
[1] = system: Aspergillus niger; assay: Minimal inhibitory concentration, spore culture; details: mold
[2] = system: Pseudomonas aeruginosa; assay: Minimal inhibitory concentration, macrodilution method; details: Gram negative; 24 h, 30° C.
Text: (§1) For the determination of the minimal inhibitory concentration (MIC) of nanosilver against different bacteria and fungi, i.e. the lowest concentration at which these micro-organisms show an inhibition of growth, the following protocol was used: • Journal of Antimicrobial Chemotherapy Supplement (JAC [2001] 48, Suppl. S1), March 2006, Chapter 2: Determination of minimal inhibitory concentrations; Macrodilution method.
(§2) Cultures of Staphylococcus aureus, Pseudomonas aeruginosa and Candida albicans were grown overnight and diluted to 150×10^6 bacterial cells or 5×10^6 yeast cells per mL (according to an optical density measured at 610 nm). These stock solutions were further diluted 500 times, […]. The final culture was then two times diluted in the final microtiter plate, resulting in a final dilution of 1:1000.
(§3) The test compound was diluted into the microtiter cultures at a concentration range from 0.5 to 470 mg/L Ag. The microtiter plates were then incubated at 30° C. on a shaker. After 24 h the plates were taken out of the incubation oven and growth was compared with the control row, both visually and by OD measurement at 610 nm.

[3] = system: Staphylococcus aureus; assay: as above; details: Gram positive; 24 h, 30° C.
Text: as §1, §2, §3

[4] = system: Candida albicans; assay: as above; details: yeast; 24 h, 30° C.
Text: as §1, §2, §3

SMILES: O=[N+]([O-])[O-].[Ag+] [silver nitrate]
- Minimal Inhibitory Concentration (MIC) Aspergillus niger [1]: 25 mg Ag/L
- Minimal Inhibitory Concentration (MIC) Pseudomonas aeruginosa [2]: 6.3 mg Ag/L
- Minimal Inhibitory Concentration (MIC) staphylococcus aureus [3]: 12.5 mg Ag/L
- Minimal Inhibitory Concentration (MIC) Candida albicans [4]: 12.5 mg Ag/L

Reference: patent US8454986B2, “Silver nanoparticles with specific surface area and a method for producing them” (Janssen Pharmaceutica N.V., priority 2008, dated 2013)
